{"source": "patent US8980933B2", "about": "“Combretastatin analogs for use in the treatment of cancer” (Universitat Bayreuth, priority 2010, dated 2015)", "assay_type_in_all_cases": "cell-based, human", "key": {"518A2 cells [1]": {"system": "518A2 cells", "experiment": "ROS generation, NBT assay, 518A2", "conditions": "50 μM, relative to untreated controls (1%), mean ± SD", "description": "(§1) The generation of reactive oxygen species (ROS) in tumor cells is a sign of cellular stress resulting in severe damage of cellular components such as DNA, lipids or proteins.\n(§2) For the NBT assay, HL-60 cells (0.5·10^6/mL) were plated in 96-well tissue culture plates, and test compounds were added after 24 h incubation at 37° C. to achieve a final concentration of 50 μM. […] After removal of the cell medium by centrifugation, the cells in each well were resuspended in 100 μL 0.1% NBT, and the plates were placed in the incubator for 1 h. The reduced NBT was solubilized with 100 μl 2 M KOH and 130 μl DMSO for 30 min. The absorbance was measured for each well at 630 and 405 nm (background) using an ELISA plate reader. The adherent 518A2 cells (0.5·10^4/mL) were seeded out in 96-well tissue culture plates after trypsinization and incubation for 24 h at 37° C. to allow attachment, then treated similarly, only that the medium was removed prior to incubation with NBT for 4 h. All experiments were carried out in quadruplicate."}, "518A2 cells [2]": {"system": "518A2 cells", "experiment": "Mitochondrial membrane assay (JC-1), 518A2", "conditions": "5 μM, red/green fluorescence ratio relative to untreated controls (100%), mean ± SD", "description": "(§3) Values represent means of four independent experiments±standard deviation.\n(§4) Changes in mitochondrial membrane potential were determined by the Mitochondrial Membrane Detection Kit (Stratagene, La Jolla, Calif., USA) according to the manufacturer's procedure. 72 h following treatment with 5 μM of the test compounds, cell samples were centrifuged at 400 g for 5 min. The pellets were resuspended in 500 μL diluted JC-1 solution, incubated at 37° C. for 15 min (HL-60) and then centrifuged again for 5 min at 400 g. After washing, the pellets were resuspended in 100 μL PBS and transferred into the wells of a black 96-well plate. The red (λex=585 nm, λem=590 nm) and green (λex=510 nm, λem=527 nm) fluorescence intensities were measured and their ratio was calculated."}, "HL-60 cells [3]": {"system": "HL-60 cells", "experiment": "Mitochondrial membrane assay (JC-1), HL-60", "conditions": "5 μM, red/green fluorescence ratio relative to untreated controls (100%), mean ± SD", "description": "as §3, §4"}, "HL-60 cells [4]": {"system": "HL-60 cells", "experiment": "ROS generation, NBT assay, HL-60", "conditions": "50 μM, relative to untreated controls (1%), mean ± SD", "description": "as §1, §2"}, "[5]": {"system": "MCF-7/Topo breast carcinoma cells", "experiment": "MTT cell growth inhibition, MCF-7/Topo", "conditions": "MCF-7/Topo (BCRP+)", "description": "The effects of the compounds 5b, 6b, 8a, and 8e according to the present invention and of the reference compound 25f (Wang et al., J. Med. Chem. 2002, 45, 1697-1711) on cells of the following human tumor cell lines were evaluated: 518A2 melanoma, HL-60 leukemia, HT-29 colon carcinoma, KB-V1/Vbl cervical carcinoma, and MCF-7/Topo breast carcinoma.\nThe HL-60 cells were obtained from the German Collection of Biological Material (DSMZ), Braunschweig, Germany; the human 518A2 melanoma cells as well as the testicular germ cell tumor cell lines H12.1 and 1411HP were cultured in the department of oncology and hematology, Medical Faculty of the Martin-Luther University, Halle, Germany; the KBV1/Vbl and the MCF-7/Topo cells were obtained from the Institute of Pharmacy of the University Regensburg, Germany; and the colon HT-29 cells from the University Hospital Erlangen, Germany. The HL-60 and the HT-29 cells were grown in RPMI-1640 medium supplemented with 10% fetal calf serum (FCS), 100 IU/mL penicillin G, 100 μg/mL streptomycin sulfate, 0.25 μg/mL amphotericin B and 250 μg/mL gentamycine (all from Gibco, Egenstein, Germany). The 518A2 and the KB-V1/Vbl cells were cultured in Dulbecco's Modified Eagle Medium (D-MEM, Gibco) containing 10% FCS, 100 IU/mL penicillin G, 100 μg/mL streptomycin sulfate, 0.25 μg/mL amphotericin B and 250 μg/mL gentamycine. The MCF-7/Topo cells were grown in E-MEM medium (Sigma) supplemented with 2.2 g/L NaHCO3, 110 mg/L sodium pyruvate and 5% FCS. The cells were maintained in a moisture-saturated atmosphere (5% CO2) at 37° C. in 75-mL culture flasks (Nunc, Wiesbaden, Germany). They were serially passaged following trypsinisation by 0.05% trypsin/0.02% EDTA (PAA laboratories, Clbe, Germany). Mycoplasma contamination was routinely monitored, and only mycoplasma-free cultures were used.\nMTT [3-(4,5-dimethylthiazol-2-yl)-2,5-diphenyltetrazolium bromide](ABCR) was used to identify viable cells which reduce it to a violet formazan (Mosmann, J. Immunol. Methods 1983, 65, 55-63). HL-60 leukemia cells (5×10^5/mL), and cells (5×10^4/mL) of 518A2 melanoma, HT-29 colon, KB-V1/Vbl cervix and MCF-7/Topo breast carcinoma were seeded out in 96-well tissue culture plates and cultured for 24 h. Incubation (5% CO2, 95% humidity, 37° C.) of the cells following treatment with the test compounds was continued for 24, 48 or 72 h. Blank and solvent controls were treated identically. […] The microplates were gently shaken in the dark for 30 min and absorbance at 570 nm and 630 nm (background) was measured with an ELISA plate reader. All experiments were carried out in quadruplicate; the percentage of viable cells was calculated as the mean±SD with controls set to 100%."}, "[6]": {"system": "KB-V1/Vbl cervical carcinoma cells", "experiment": "MTT cell growth inhibition, KB-V1/Vbl", "conditions": "KB-V1/Vbl (Pgp+)", "description": "The MCF-7/Topo cells were grown in E-MEM medium (Sigma) supplemented with 2.2 g/L NaHCO3, 110 mg/L sodium pyruvate and 5% FCS. The cells were maintained in a moisture-saturated atmosphere (5% CO2) at 37° C. in 75-mL culture flasks (Nunc, Wiesbaden, Germany). They were serially passaged following trypsinisation by 0.05% trypsin/0.02% EDTA (PAA laboratories, Clbe, Germany). Mycoplasma contamination was routinely monitored, and only mycoplasma-free cultures were used.\nHL-60 leukemia cells (5×10^5/mL), and cells (5×10^4/mL) of 518A2 melanoma, HT-29 colon, KB-V1/Vbl cervix and MCF-7/Topo breast carcinoma were seeded out in 96-well tissue culture plates and cultured for 24 h. […] Blank and solvent controls were treated identically. MTT in phosphate buffered saline (5 mg/mL) was added to a final concentration of 0.05% (HL-60, 518A2) or 0.1% (HT-29, KB-V1/Vbl, MCF-7/Topo). After 2 h the formazan precipitate was dissolved in 10% sodium dodecylsulfate in DMSO containing 0.6% acetic acid in the case of the HL-60 cells. For the adherent 518A2, KB-V1/Vbl, MCF-7/Topo and HT-29 cells the microplates were swiftly turned to discard the medium before adding the solvent mixture. The microplates were gently shaken in the dark for 30 min and absorbance at 570 nm and 630 nm (background) was measured with an ELISA plate reader. All experiments were carried out in quadruplicate; the percentage of viable cells was calculated as the mean±SD with controls set to 100%."}}}
{"molecule": "COc1cc(-c2ncoc2-c2ccc(N(C)C)cc2)cc(N)c1OC", "note": "[8b, 4-(3′-Amino-4′,5′-dimethoxyphenyl)-5-(4″-N,N-dimethylaminophenyl)-oxazole]", "values": [{"measurement": "NBT Reduction [%] in 518A2 cells after 24 h", "setting": "518A2 cells [1]", "result": "1.4 ± 0.3", "unit": "%"}, {"measurement": "Intact mitochondria [%] in 518A2 cells after 72 h", "setting": "518A2 cells [2]", "result": "82 ± 8", "unit": "%"}, {"measurement": "Intact mitochondria [%] in HL-60 cells after 72 h", "setting": "HL-60 cells [3]", "result": "62 ± 12", "unit": "%"}, {"measurement": "NBT Reduction [%] in HL-60 cells after 24 h", "setting": "HL-60 cells [4]", "result": "3.3 ± 0.2", "unit": "%"}]}
{"molecule": "COc1ccc(-c2c(-c3cc(N)c(OC)c(OC)c3)ncn2C)cc1O", "note": "[8c, 1-Methyl-4-(3′-amino-4′,5′-dimethoxyphenyl)-5-(3″-hydroxy-4-methoxyphenyl)-imidazole]", "values": [{"measurement": "NBT Reduction [%] in 518A2 cells after 24 h", "setting": "518A2 cells [1]", "result": "1.1 ± 0.0", "unit": "%"}, {"measurement": "Intact mitochondria [%] in 518A2 cells after 72 h", "setting": "518A2 cells [2]", "result": "94 ± 7", "unit": "%"}, {"measurement": "Intact mitochondria [%] in HL-60 cells after 72 h", "setting": "HL-60 cells [3]", "result": "76 ± 19", "unit": "%"}, {"measurement": "NBT Reduction [%] in HL-60 cells after 24 h", "setting": "HL-60 cells [4]", "result": "1.8 ± 0.3", "unit": "%"}]}
{"molecule": "COc1ccc(-c2c(-c3cc(N)c(OC)c(OC)c3)ncn2C)cc1F", "note": "[8d, 1-Methyl-4-(3′-amino-4′,5′-dimethoxyphenyl)-5-(3″-fluoro-4-methoxyphenyl)-imidazole]", "values": [{"measurement": "NBT Reduction [%] in 518A2 cells after 24 h", "setting": "518A2 cells [1]", "result": "1.2 ± 0.1", "unit": "%"}, {"measurement": "Intact mitochondria [%] in 518A2 cells after 72 h", "setting": "518A2 cells [2]", "result": "98 ± 15", "unit": "%"}, {"measurement": "Intact mitochondria [%] in HL-60 cells after 72 h", "setting": "HL-60 cells [3]", "result": "90 ± 22", "unit": "%"}, {"measurement": "NBT Reduction [%] in HL-60 cells after 24 h", "setting": "HL-60 cells [4]", "result": "1.4 ± 0.2", "unit": "%"}]}
{"molecule": "COc1ccc(-c2c(-c3cc(Cl)c(OC)c(OC)c3)ncn2C)cc1F", "note": "[compound 5c, 1-Methyl-4-(3′-chloro-4′,5′-dimethoxyphenyl)-5-(3″-fluoro-4-methoxyphenyl)-imidazole]", "values": [{"measurement": "NBT Reduction [%] in 518A2 cells after 24 h", "setting": "518A2 cells [1]", "result": "1.6 ± 0.1", "unit": "%"}, {"measurement": "Intact mitochondria [%] in 518A2 cells after 72 h", "setting": "518A2 cells [2]", "result": "84 ± 6", "unit": "%"}, {"measurement": "Intact mitochondria [%] in HL-60 cells after 72 h", "setting": "HL-60 cells [3]", "result": "55 ± 7", "unit": "%"}, {"measurement": "NBT Reduction [%] in HL-60 cells after 24 h", "setting": "HL-60 cells [4]", "result": "4.8 ± 0.5", "unit": "%"}]}
{"molecule": "COc1cc(-c2ncn(C)c2-c2ccc(N(C)C)cc2)cc(Cl)c1OC", "note": "[compound 5d, 1-Methyl-4-(3′-chloro-4′,5′-dimethoxyphenyl)-5-(4″-N,N-dimethylaminophenyl)-imidazole]", "values": [{"measurement": "NBT Reduction [%] in 518A2 cells after 24 h", "setting": "518A2 cells [1]", "result": "2.4 ± 0.4", "unit": "%"}, {"measurement": "Intact mitochondria [%] in 518A2 cells after 72 h", "setting": "518A2 cells [2]", "result": "80 ± 7", "unit": "%"}, {"measurement": "Intact mitochondria [%] in HL-60 cells after 72 h", "setting": "HL-60 cells [3]", "result": "61 ± 13", "unit": "%"}, {"measurement": "NBT Reduction [%] in HL-60 cells after 24 h", "setting": "HL-60 cells [4]", "result": "6.0 ± 0.9", "unit": "%"}]}
{"molecule": "COc1ccc(-c2c(-c3cc(Br)c(OC)c(OC)c3)ncn2C)cc1F", "note": "[compound 6c, 1-Methyl-4-(3′-bromo-4′,5′-dimethoxyphenyl)-5-(3″-fluoro-4″-methoxyphenyl)-imidazole]", "values": [{"measurement": "NBT Reduction [%] in 518A2 cells after 24 h", "setting": "518A2 cells [1]", "result": "1.4 ± 0.3", "unit": "%"}, {"measurement": "Intact mitochondria [%] in 518A2 cells after 72 h", "setting": "518A2 cells [2]", "result": "89 ± 10", "unit": "%"}, {"measurement": "Intact mitochondria [%] in HL-60 cells after 72 h", "setting": "HL-60 cells [3]", "result": "60 ± 15", "unit": "%"}, {"measurement": "NBT Reduction [%] in HL-60 cells after 24 h", "setting": "HL-60 cells [4]", "result": "3.9 ± 0.1", "unit": "%"}]}
{"molecule": "COc1cc(-c2ncn(C)c2-c2ccc(N(C)C)cc2)cc(Br)c1OC", "note": "[compound 6d, 1-Methyl-4-(3′-bromo-4′,5′-dimethoxyphenyl)-5-(4″-N,N-dimethylaminophenyl)-imidazole]", "values": [{"measurement": "NBT Reduction [%] in 518A2 cells after 24 h", "setting": "518A2 cells [1]", "result": "1.6 ± 0.3", "unit": "%"}, {"measurement": "Intact mitochondria [%] in 518A2 cells after 72 h", "setting": "518A2 cells [2]", "result": "82 ± 7", "unit": "%"}, {"measurement": "Intact mitochondria [%] in HL-60 cells after 72 h", "setting": "HL-60 cells [3]", "result": "63 ± 13", "unit": "%"}, {"measurement": "NBT Reduction [%] in HL-60 cells after 24 h", "setting": "HL-60 cells [4]", "result": "6.7 ± 0.8", "unit": "%"}]}
{"molecule": "COc1cc(-c2ncn(C)c2-c2ccc3c(c2)c(Cl)cn3C)cc(N)c1OC", "note": "[compound 8e, 1-methyl-4-(3-amino-4,5-dimethoxyphenyl)-5-(N-methyl-3-chloroindol-5-yl)-imidazole]", "values": [{"measurement": "NBT Reduction [%] in 518A2 cells after 24 h", "setting": "518A2 cells [1]", "result": "1.6 ± 0.3", "unit": "%"}, {"measurement": "cytotoxicity / efficacy (comparison)", "setting": "[5]", "result": "greater efficacy than 25f and 5b/6b"}, {"measurement": "Intact mitochondria [%] in 518A2 cells after 72 h", "setting": "518A2 cells [2]", "result": "77 ± 8", "unit": "%"}, {"measurement": "Intact mitochondria [%] in HL-60 cells after 72 h", "setting": "HL-60 cells [3]", "result": "60 ± 15", "unit": "%"}, {"measurement": "NBT Reduction [%] in HL-60 cells after 24 h", "setting": "HL-60 cells [4]", "result": "6.4 ± 0.3", "unit": "%"}, {"measurement": "efficacy (comparison)", "setting": "[6]", "result": "greater efficacy than 25f and 5b/6b"}]}
